≈ marks a conversion by molar mass, not a printed value. Where two headings read alike, the source gives them in different places.

Data set [1] is described as follows: Acid stability (pH 2), remaining antibacterial activity by disc method. The data set is classed as physicochemical, Staphylococcus aureus FDA 209P. On the procedure:
(§1) The compound of the formula(I) was treated in the Clark-Lubs's buffer solution at pH 2 for the prescribed period of time.
(§2) Thereafter, the remaining antibacterial activity was determined by a disc method, using Staphylococcus aureus FDA 209P. Erthromycin A was also tested for the control.

In data set [2] the test system is Staphylococcus aureus FDA 209P. The description is as above. The data set is classed as physicochemical. The note with it: pH 2, Clark-Lubs's buffer, 0 min. Here is the method:
as §1, §2

For data set [3], the system named is Staphylococcus aureus TPR-5. Description: Antibacterial activity, agar plate dilution method (MIC). The data set is classed as cell-based. On the procedure:
(§3) The compound of the formula(I) was tested for the antibacterial activity by the agar plate dilution method, using erythromycin A for the control.
*Strain resistant to sulfonamides and penicillins

The test system of data set [4] is Staphylococcus aureus TPR-7. The description is as above. Type of data set: cell-based. Here is the method: as §3
**Strain resistant to sulfonamides and tetracyclines

Data set [5] concerns Staphylococcus epidermidis TPR-14. The data set is described as above. The data set is classed as cell-based. On the procedure:
as §3
***Strain resistant to sulfonamides, penicillins and chloramphenicol

Data set [6] relates to Bacillus cereus ATCC 9634. The description is as above. Type of data set: cell-based. On the procedure: as §3
Data set [7] concerns Bacillus subtilis ATCC 6633. The data set is described as above. Type of data set: cell-based. Here is the method:
as §3

For data set [8], the system named is Micrococcus luteus ATCC 9341. The data set is described as above. The data set is classed as cell-based. Here is the method:
as §3

In data set [9] the test system is Staphylococcus aureus FDA 209P. Described as above. Type of data set: cell-based. The note with it: FDA209P, read-out: MIC value. On the procedure: as §3
Data set [10] deals with Staphylococcus aureus Smith. The description is as above. The data set is classed as cell-based. Particulars: read-out: MIC value. On the procedure:
as §3

In data set [11] the test system is Staphylococcus aureus Terashima. The data set is described as above. Type of data set: cell-based. The note with it: read-out: MIC value. On the procedure: as §3
Data set [12] has as its system Staphylococcus epidermidis IID866. The description is as above. Type of data set: cell-based. On the procedure:
as §3

For data set [13], the system named is Streptococcus faecalis ATCC 8043. Described as above. Type of data set: cell-based. The note with it: Enterococcus faecalis. Here is the method: as §3
The test system of data set [14] is Staphylococcus aureus Smith No. 4. Description: In vivo activity, survival of infected mice after oral administration. Details: species or system male ddY mice. Particulars: 1 h after inoculation, 14 mice per group, 7 days. On the procedure: Male ddY mice (body weight, 18-22 g; 14 mice per group) were inoculated with Staphylococcus aureus Smith No. 4. The compound of the formula(I) was administered orally one hour after the inoculation, and the number of mice surviving for seven days after the administration was noted.

For data set [15] the following is noted: cited from earlier work.
[16] abbreviates: TPR5, Staphylococcus aureus TPR-5, resistant to sulfonamides and penicillins, read-out: MIC value.
Where [17] appears, read: TPR7, Staphylococcus aureus TPR-7, resistant to sulfonamides and tetracyclines, read-out: MIC value.
The mark [18] stands for this setting: TPR14, Staphylococcus epidermidis TPR-14, resistant to sulfonamides, penicillins and chloramphenicol, read-out: MIC value.
Setting [19] is: ATCC9634, Bacillus cereus ATCC 9634, read-out: MIC value.
Setting [20] is: ATCC6633, Bacillus subtilis ATCC 6633, read-out: MIC value.
Setting [21] is: ATCC9341, Micrococcus luteus ATCC 9341, read-out: MIC value.
Where [22] appears, read: Staphylococcus aureus Terashima.
Where [23] appears, read: Staphylococcus epidermidis IID866, read-out: MIC value.
The mark [24] stands for this setting: ATCC8043, Streptococcus faecalis ATCC 8043, read-out: MIC value.

What is called amount remaining is the share of the starting amount still present when the sample was taken. Usually MIC stands for the lowest concentration found to suppress growth. On to `CC[C@H]1OC(=O)[C@H](C)[C@@H](O[C@H]2C[C@@](C)(OC)[C@@H](O)[C@H](C)O2)[C@H](C)[C@@H](O[C@@H]2O[C@H](C)C[C@H](N(C)C)[C@H]2O)[C@](C)(O)C[C@@H](C)C(=O)[C@H](C)[C@@H](O)[C@]1(C)O` [Erythromycin A, erythromycin A, reference compound], for which the amount remaining at 0.25 h in data set [1] (pH 2, Clark-Lubs's buffer, 15 min, read-out: Remaining activity) came to 1.5%. The share remaining at 0.5 h in data set [1] (pH 2, Clark-Lubs's buffer, 30 min, read-out: Remaining activity) came to 0.5%. Besides, the share remaining at 1 h in data set [1] (pH 2, Clark-Lubs's buffer, 60 min, read-out: Remaining activity) came to 0%. Further, the amount remaining at 2 h in data set [1] (pH 2, Clark-Lubs's buffer, 120 min, read-out: Remaining activity) turned out to be 0%. This compound also came in with a Remaining activity in data set [2] of 100%. Also, the minimum inhibitory concentration (MIC) in data set [3] (Staphylococcus aureus, TPR5, read-out: MIC value) was 0.4 µg/mL (≈ 0.545 µM); in data set [4] (Staphylococcus aureus, TPR7, read-out: MIC value) it was 0.4 µg/mL (≈ 0.545 µM); in data set [5] (Staphylococcus epidermidis, TPR14, read-out: MIC value) it was 0.4 µg/mL (≈ 0.545 µM); in data set [6] (Bacillus cereus, ATCC9634, read-out: MIC value), 0.4 µg/mL (≈ 0.545 µM); in data set [7] (Bacillus subtilis, ATCC6633, read-out: MIC value), 0.1 µg/mL (≈ 0.136 µM); in data set [8] (Micrococcus luteus, ATCC9341, read-out: MIC value), at most 0.05 µg/mL. Moreover, the MIC is 0.2 µg/mL (≈ 0.273 µM) in data set [9] (Staphylococcus aureus); 0.4 µg/mL (≈ 0.545 µM) in [10] (Staphylococcus aureus); 0.4 µg/mL (≈ 0.545 µM) in data set [11] (Staphylococcus aureus); 0.4 µg/mL (≈ 0.545 µM) in data set [12] (Staphylococcus epidermidis, IID866, read-out: MIC value); 0.05 µg/mL (≈ 0.0681 µM) in data set [13] (ATCC8043, read-out: MIC value). The “The number of surviving mice” value in [14] (0.40 mg/kg oral) came out at 0 mice; in [14] (1.56 mg/kg oral), 0 mice; in [14] (6.25 mg/kg oral), 0 mice; in data set [14] (25 mg/kg oral), 1 mice; in [14] (100 mg/kg oral) it was 11 mice; in data set [14] (400 mg/kg oral), 14 mice. In [15], the “antibacterial activity after oral administration (acid in stomach)” value is reported as “loses rapidly the antibacterial activity”. Moreover, in data set [15] (oral), the blood concentration result is given as “remains at a low level”.
Consider `CC[C@H]1OC(=O)[C@H](C)[C@@H](O[C@H]2C[C@@](C)(OC)[C@@H](O)[C@H](C)O2)[C@H](C)[C@@H](O[C@@H]2O[C@H](C)C[C@H](N(C)C)[C@H]2O)[C@](C)(OC)C[C@@H](C)C(=O)[C@H](C)[C@@H](O)[C@]1(C)O` [TE-031, 6-O-methylerythromycin A], for which the fraction remaining at 0.25 h in [1] (clark-lubs buffer, pH 2) was 100%. The same compound returned a share remaining at 0.5 h in [1] (clark-lubs buffer, pH 2) of 95%. Besides, the share remaining at 1 h in [1] (clark-lubs buffer, pH 2) stood at 80%. The same compound yielded a fraction remaining at 2 h in data set [1] (clark-lubs buffer, pH 2) of 65%. In data set [2], this compound yielded a Remaining activity of 100%. Further, the MIC is 0.2 µg/mL (≈ 0.267 µM) in data set [3] (setting [16]); 0.2 µg/mL (≈ 0.267 µM) in [4] (setting [17]); 0.2 µg/mL (≈ 0.267 µM) in data set [5] (setting [18]); 0.2 µg/mL (≈ 0.267 µM) in [6] (setting [19]); 0.05 µg/mL (≈ 0.0668 µM) in data set [7] (setting [20]); at most 0.05 µg/mL in data set [8] (setting [21]). In addition, the MIC in [9] (Staphylococcus aureus FDA 209P) was found to be 0.05 µg/mL (≈ 0.0668 µM); in data set [10] (Staphylococcus aureus Smith), 0.2 µg/mL (≈ 0.267 µM); in data set [11] (setting [22]) it was 0.2 µg/mL (≈ 0.267 µM); in data set [12] (setting [23]) it was 0.2 µg/mL (≈ 0.267 µM); in [13] (setting [24]), 0.05 µg/mL (≈ 0.0668 µM). The “The number of surviving mice” value in data set [14] (0.40 mg/kg oral) was found to be 0 mice; in [14] (1.56 mg/kg oral), 1 mice; in [14] (6.25 mg/kg oral), 3 mice; in data set [14] (25 mg/kg oral), 13 mice; in data set [14] (100 mg/kg oral) it was 14 mice; in data set [14] (400 mg/kg oral), 14 mice.
`CC[C@H]1OC(=O)[C@H](C)[C@@H](O[C@H]2C[C@@](C)(OC)[C@@H](O)[C@H](C)O2)[C@H](C)[C@@H](O[C@@H]2O[C@H](C)C[C@H](N(C)C)[C@H]2O)[C@](C)(OC)C[C@@H](C)C(=O)[C@H](C)[C@@H](OC)[C@]1(C)O` [TE-032, 6,11-di-O-methylerythromycin A] registered a share remaining at 0.25 h in [1] (clark-lubs buffer, pH 2) of 100%. The compound also registered a fraction remaining at 0.5 h in [1] (clark-lubs buffer, pH 2) of 95%. In [1] (clark-lubs buffer, pH 2), this compound displayed an amount remaining at 1 h of 85%. The compound also registered a fraction remaining at 2 h in data set [1] (clark-lubs buffer, pH 2) of 65%. In [2], this compound yielded a Remaining activity of 100%. In addition, the MIC in data set [3] (setting [16]) is 0.4 µg/mL (≈ 0.525 µM); in data set [4] (setting [17]), 0.4 µg/mL (≈ 0.525 µM); in data set [5] (setting [18]), 0.4 µg/mL (≈ 0.525 µM); in data set [6] (setting [19]) it was 0.4 µg/mL (≈ 0.525 µM); in data set [7] (setting [20]), 0.05 µg/mL (≈ 0.0656 µM); in data set [8] (setting [21]), at most 0.05 µg/mL. Moreover, the MIC worked out at 0.1 µg/mL (≈ 0.131 µM) in data set [9] (Staphylococcus aureus FDA 209P); 0.1 µg/mL (≈ 0.131 µM) in [10] (Staphylococcus aureus Smith); 0.4 µg/mL (≈ 0.525 µM) in data set [11] (setting [22]); 0.4 µg/mL (≈ 0.525 µM) in data set [12] (setting [23]); 0.05 µg/mL (≈ 0.0656 µM) in data set [13] (setting [24]). The “The number of surviving mice” value in data set [14] (0.40 mg/kg oral) is reported as 0 mice; in data set [14] (1.56 mg/kg oral), 0 mice; in data set [14] (6.25 mg/kg oral) it was 4 mice; in data set [14] (25 mg/kg oral), 7 mice; in [14] (100 mg/kg oral), 14 mice; in data set [14] (400 mg/kg oral) it was 14 mice.

Values taken from patent US4331803A, “Novel erythromycin compounds” (Taisho Pharmaceutical Co., Ltd., priority 1980, dated 1982).
